Reference: patent publication US4081531A, “Antibiotic mimosamycin” (priority 1975, dated 1978)
Values after ≈ are worked out from the molar mass of the structure shown.

How the values were obtained:
[1] = test system: Mycobacterium bovis No. 10; experiment: microbe, parasite or virus in culture; assay type: cell-based; conditions: Mycobacterium tuberculosis variant bovis, NO.10, 672 h
[2] = test system: gram-negative bacteria; experiment: Antibacterial activity against gram-negative bacteria; assay type: cell-based; conditions: for antibacterial activity against most gram-negative bacteria: chlorocarcins, summary of Table 5
[3] = test system: highly streptomycin-resistant strains of human tubercle bacilli; assay type: cell-based; conditions: as is against normal strains of tubercle bacilli
[4] = test system: fungi; experiment: Activity against fungi; assay type: cell-based; conditions: at 50 μg/ml
[5] = test system: Mycobacterium smegmatis ATCC607; experiment: Antimicrobial activity (MIC) of mimosamycin; assay type: cell-based; conditions: Mycolicibacterium smegmatis, Nutrient agar, 37° C, 48 hours
Protocol: (§1) Remarks: Nutrient agar, 37° C, 48 hours for m. smegmatis. Sauton's liquid medium, 37° C, 4 weeks for other 3 strains. The strains SMR and Matsudo resistant to streptomycin at 1000 μg/ml or higher. Mice (18 - 20 g.) tolerated intravenous injection of 50 mg./kg. of mimosamycin.

[6] = Tolerability in mice, intravenous injection; assay type: in vivo; conditions: for toxicity: mice
Protocol: as §1
(A) and 250 mg./kg.(B and C), respectively.

[7] = test system: acid-fast bacteria; experiment: Activity against acid-fast bacteria; assay type: cell-based
[8] = test system: Mycobacterium tuberculosis H37 RV; experiment: Antimicrobial activity (MIC) against tubercle bacilli; assay type: cell-based; conditions: H37RV, 672 h, Sauton's liquid medium, 37° C, 4 weeks
[9] = test system: gram-positive bacteria; experiment: Antibacterial activity against gram-positive bacteria; assay type: cell-based; conditions: for antibacterial activity against gram-positive bacteria: chlorocarcins, summary of Table 5
[10] = test system: tubercle bacilli; experiment: Effect against tubercle bacilli; assay type: cell-based
[11] = Solubility; assay type: physicochemical
[12] = test system: Pseudomonas aeruginosa; experiment: Antimicrobial spectrum (MIC); assay type: cell-based; conditions: 1% glucose nutrient agar, 37° C, 24 or 48 hours
[13] = test system: Bacillus cereus; experiment: Antimicrobial spectrum (MIC); assay type: cell-based; conditions: 1% glucose nutrient agar, 37° C, 24 or 48 hours
[14] = test system: Staphylococcus albus; experiment: Antimicrobial spectrum (MIC); assay type: cell-based; conditions: 1% glucose nutrient agar, 37° C, 24 or 48 hours
[15] = test system: Brucella abortus; assay type: cell-based; conditions: blood agar, 37° C, 24 or 48 hours
[16] = test system: Bacillus subtilis PCI 219; experiment: Antimicrobial spectrum (MIC); assay type: cell-based; conditions: 1% glucose nutrient agar, 37° C, 24 or 48 hours
[17] = test system: Mycobacterium phlei; experiment: Antimicrobial spectrum (MIC); assay type: cell-based; conditions: 3% glycerin nutrient agar, 37° C, 24 or 48 hours
[18] = test system: Mycobacterium avium; experiment: Antimicrobial spectrum (MIC); assay type: cell-based; conditions: 3% glycerin nutrient agar, 37° C, 24 or 48 hours
[19] = test system: Salmonella typhimurium; experiment: Antimicrobial spectrum (MIC); assay type: cell-based; conditions: 1% glucose nutrient agar, 37° C, 24 or 48 hours
[20] = test system: Penicillium glaucum; experiment: Antimicrobial spectrum (MIC); assay type: cell-based; conditions: Sabouraud dextrose agar, 27° C, 48 hours
[21] = test system: Tolura rubra; experiment: Antimicrobial spectrum (MIC); assay type: cell-based; conditions: Sabouraud dextrose agar, 27° C, 48 hours
[22] = test system: Staphylococcus aureus Smith; experiment: Antimicrobial spectrum (MIC); assay type: cell-based; conditions: 1% glucose nutrient agar, 37° C, 24 or 48 hours
[23] = test system: Streptococcus hemolyticus 090R; experiment: Antimicrobial spectrum (MIC); assay type: cell-based; conditions: blood agar, 37° C, 24 or 48 hours
[24] = test system: Staphylococcus citreus; experiment: Antimicrobial spectrum (MIC); assay type: cell-based; conditions: 1% glucose nutrient agar, 37° C, 24 or 48 hours
[25] = test system: Saccharomyces cerevisiae; experiment: Antimicrobial spectrum (MIC); assay type: cell-based; conditions: Sabouraud dextrose agar, 27° C, 48 hours
[26] = test system: Aspergillus oryzae; experiment: Antimicrobial spectrum (MIC); assay type: cell-based; conditions: Sabouraud dextrose agar, 27° C, 48 hours
[27] = test system: Streptococcus salivarius; experiment: Antimicrobial spectrum (MIC); assay type: cell-based; conditions: 1% glucose nutrient agar, 37° C, 24 or 48 hours
[28] = test system: Klebsiella pneumonaie; experiment: Antimicrobial spectrum (MIC); assay type: cell-based; conditions: 1% glucose nutrient agar, 37° C, 24 or 48 hours
[29] = test system: Mucor mucedo; experiment: Antimicrobial spectrum (MIC); assay type: cell-based; conditions: Sabouraud dextrose agar, 27° C, 48 hours
[30] = test system: Candida albicans; experiment: Antimicrobial spectrum (MIC); assay type: cell-based; conditions: Sabouraud dextrose agar, 27° C, 48 hours
[31] = test system: Shigella dysenteriae; experiment: Antimicrobial spectrum (MIC); assay type: cell-based; conditions: 1% glucose nutrient agar, 37° C, 24 or 48 hours
[32] = test system: Escherichia coli; experiment: Antimicrobial spectrum (MIC); assay type: cell-based; conditions: 1% glucose nutrient agar, 37° C, 24 or 48 hours
[33] = test system: Corynebacterium diphtheriae; experiment: Antimicrobial spectrum (MIC); assay type: cell-based; conditions: 1% glucose nutrient agar, 37° C, 24 or 48 hours
[34] = test system: Serratia marcescens; experiment: Antimicrobial spectrum (MIC); assay type: cell-based; conditions: 1% glucose nutrient agar, 37° C, 24 or 48 hours
[35] = test system: Streptococcus hemolyticus Coock; experiment: Antimicrobial spectrum (MIC); assay type: cell-based; conditions: blood agar, 37° C, 24 or 48 hours
[36] = test system: Staphylococcus aureus 209 P; experiment: Antimicrobial spectrum (MIC); assay type: cell-based; conditions: 1% glucose nutrient agar, 37° C, 24 or 48 hours
[37] = test system: Corynebacterium xerosis; experiment: Antimicrobial spectrum (MIC); assay type: cell-based; conditions: 1% glucose nutrient agar, 37° C, 24 or 48 hours
[38] = test system: Aspergillus niger; experiment: Antimicrobial spectrum (MIC); assay type: cell-based; conditions: Sabouraud dextrose agar, 27° C, 48 hours
[39] = test system: Streptococcus faecalis; experiment: Antimicrobial spectrum (MIC); assay type: cell-based; conditions: 1% glucose nutrient agar, 37° C, 24 or 48 hours
[40] = test system: Trichophyton mentagrophytes; experiment: Antimicrobial spectrum (MIC); assay type: cell-based; conditions: Sabouraud dextrose agar, 27° C, 72 hours
[41] = test system: Nocardia asteoides; experiment: Antimicrobial spectrum (MIC); assay type: cell-based; conditions: 37° C, 24 or 48 hours
[42] = test system: Mycobacterium smegmatis ATCC 607; experiment: Antimicrobial spectrum (MIC); assay type: cell-based; conditions: 3% glycerin nutrient agar, 37° C, 24 or 48 hours
[43] = test system: Lactobacillus arabinosus; experiment: Antimicrobial spectrum (MIC); assay type: cell-based; conditions: 1% glucose nutrient agar, 37° C, 24 or 48 hours
[44] = Lower alcohols, chloroform, esters, acetone, benzene, ethyl ether

Compound: COC1=C(C)C(=O)c2cc(=O)n(C)cc2C1=O [mimosamycin]
- MIC [1]: 6.25 µg/mL (≈ 26.8 µM)
- activity against gram-negative bacteria ([2]; at 50 μg/ml): non-effective
- activity against highly streptomycin-resistant strains of human tubercle bacilli [3]: effective
- activity against fungi [4]: non-effective
- MIC [5]: 25 µg/mL (≈ 107 µM)
- MTD ([6]; mouse, in vivo, mice 18 - 20 g, read-out: tolerated dose): 50 mg/kg
- activity against acid-fast bacteria [7]: active
- MIC [8]: 1.56 µg/mL (≈ 6.69 µM)
- activity against gram-positive bacteria ([9]; mimosamycin): active against gram-positive bacteria to a certain extent
- effect against tubercle bacilli [10]: specifically effective
- Solubility ([11]; Ethyl ether, n-hexane): Sparingly soluble
- Solubility ([11]; Methanol, ethanol, chloroform, esters, acetone): Easily soluble
- Solubility ([11]; Water): Insoluble

Compound: chlorocarcin C
- MIC [12]: > 100 µg/mL
- MIC [13]: 50 µg/mL
- MIC [14]: 50 µg/mL
- MIC [15]: > 100 µg/mL
- MIC [16]: 25 µg/mL
- MIC [17]: > 100 µg/mL
- MIC [18]: > 100 µg/mL
- MIC [19]: > 100 µg/mL
- MIC [20]: > 100 µg/mL
- antibacterial activity against most gram-negative bacteria [2]: little antibacterial activity
- MIC [21]: > 100 µg/mL
- MIC [22]: 12.5 µg/mL
- MIC [23]: 100 µg/mL
- MIC [24]: 25 µg/mL
- toxicity [6]: relatively low toxicity
- MIC [25]: > 100 µg/mL
- MIC [26]: > 100 µg/mL
- MIC [27]: 50 µg/mL
- MIC [28]: 50 µg/mL
- MIC [29]: > 100 µg/mL
- MIC [30]: > 100 µg/mL
- MIC [31]: > 100 µg/mL
- MIC [32]: > 100 µg/mL
- MIC [33]: 0.05 µg/mL
- MIC [34]: > 100 µg/mL
- MIC [35]: 6.25 µg/mL
- MIC [36]: 12.5 µg/mL
- MIC [37]: 0.39 µg/mL
- MIC [38]: > 100 µg/mL
- MIC [39]: > 100 µg/mL
- antibacterial activity against gram-positive bacteria [9]: mainly show an antibacterial activity
- MIC [40]: > 100 µg/mL
- Solubility [11, 44]: Easily soluble
- Solubility ([11]; Water): Insoluble
- Solubility ([11]; n-hexane): Sparingly soluble
- MIC [41]: 50 µg/mL
- MIC [42]: > 100 µg/mL
- MIC [43]: 50 µg/mL

Compound: chlorocarcin B
- MIC [12]: > 100 µg/mL
- MIC [13]: 50 µg/mL
- MIC [14]: 50 µg/mL
- MIC [15]: > 100 µg/mL
- MIC [16]: 25 µg/mL
- MIC [17]: > 100 µg/mL
- MIC [18]: > 100 µg/mL
- MIC [19]: > 100 µg/mL
- MIC [20]: > 100 µg/mL
- antibacterial activity against most gram-negative bacteria [2]: little antibacterial activity
- MIC [21]: > 100 µg/mL
- MIC [22]: 12.5 µg/mL
- MIC [23]: 100 µg/mL
- MIC [24]: 25 µg/mL
- toxicity [6]: relatively low toxicity
- MIC [25]: > 100 µg/mL
- MIC [26]: > 100 µg/mL
- MIC [27]: 50 µg/mL
- MIC [28]: 50 µg/mL
- MIC [29]: > 100 µg/mL
- MIC [30]: > 100 µg/mL
- MIC [31]: > 100 µg/mL
- MIC [32]: > 100 µg/mL
- MIC [33]: 0.05 µg/mL
- MIC [34]: > 100 µg/mL
- MIC [35]: 6.25 µg/mL
- MIC [36]: 12.5 µg/mL
- MIC [37]: 0.39 µg/mL
- MIC [38]: > 100 µg/mL
- MIC [39]: > 100 µg/mL
- antibacterial activity against gram-positive bacteria [9]: mainly show an antibacterial activity
- MIC [40]: > 100 µg/mL
- Solubility [11, 44]: Easily soluble
- Solubility ([11]; Water): Insoluble
- Solubility ([11]; n-hexane): Sparingly soluble
- MIC [41]: 50 µg/mL
- MIC [42]: > 100 µg/mL
- MIC [43]: 50 µg/mL

Compound: chlorocarcin A
- MIC [12]: > 100 µg/mL
- MIC [13]: 50 µg/mL
- MIC [14]: 0.1 µg/mL
- MIC [15]: > 100 µg/mL
- MIC [16]: 0.2 µg/mL
- MIC [17]: 100 µg/mL
- MIC [18]: 100 µg/mL
- MIC [19]: > 100 µg/mL
- MIC [20]: > 100 µg/mL
- antibacterial activity against most gram-negative bacteria [2]: little antibacterial activity
- MIC [21]: > 100 µg/mL
- MIC [22]: 0.02 µg/mL
- MIC [23]: 50 µg/mL
- MIC [24]: 0.1 µg/mL
- toxicity [6]: relatively low toxicity
- MIC [25]: > 100 µg/mL
- MIC [26]: > 100 µg/mL
- MIC [27]: 6.25 µg/mL
- MIC [28]: 100 µg/mL
- MIC [29]: > 100 µg/mL
- MIC [30]: > 100 µg/mL
- MIC [31]: > 100 µg/mL
- MIC [32]: > 100 µg/mL
- MIC [33]: 0.003 µg/mL
- MIC [34]: > 100 µg/mL
- MIC [35]: 6.25 µg/mL
- MIC [36]: 0.1 µg/mL
- MIC [37]: 0.003 µg/mL
- MIC [38]: > 100 µg/mL
- MIC [39]: 25 µg/mL
- antibacterial activity against gram-positive bacteria [9]: mainly show an antibacterial activity
- MIC [40]: 100 µg/mL
- Solubility ([11]; Ethyl ether, esters, chloroform, acetone, alcohols, 0.1N HCl): Easily soluble
- Solubility ([11]; Water): Insoluble
- Solubility ([11]; n-hexane, 0.1N NaOH): Sparingly soluble
- MIC [41]: 25 µg/mL
- MIC [42]: 100 µg/mL
- MIC [43]: 12.5 µg/mL
